Consider 20 compounds from patent publication US9221795B2, “Phosphatidylinositol 3-kinase inhibitors” (Gilead Sciences, Inc., priority 2013, dated 2015).

In series [1] the target is PI3Kδ (Homo sapiens (Human), UniProt O00329). The series is described as follows: Enzymatic activity of PI3K isoforms, TR-FRET assay (PI3Kδ). The note with it: 2× Km ATP, geometric mean if more than one value. Format: biochemical. An outline of the steps:
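Recombinant heterodimeric PI3Kβ or PI3Kδ (25-50 pM) was run with 2 μM PIP2 and 2× Km ATP (75-500 μM) at pH 7.4, for 30 min at 25° C. PIP3 formation was detected by TR-FRET displacement of labeled PIP3 from Eu-GRP-1. IC50 values in nM come from four-parameter fits, as geometric means.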

For series [2], the target named is PI3Kβ (Homo sapiens (Human), UniProt P42338). The series is described as follows: Enzymatic activity of PI3K isoforms, TR-FRET assay (PI3Kβ). Format: biochemical. The note with it: 2× Km ATP, geometric mean if more than one value. As for the experimental part:
Enzymatic activity of the class I PI3K isoforms in the presence of the compounds of Table 1 and Compounds X, Y and Z was measured using a time-resolved fluorescence resonance energy transfer (TR-FRET) assay. The TR-FRET assay was used to monitor formation of the product 3,4,5-inositol triphosphate molecule (PIP3) as it competed with fluorescently labeled PIP3 for binding to the GRP-1 pleckstrin homology domain protein. An increase in […] product results in a decrease in TR-FRET signal as the labeled fluorophore is displaced from the GRP-1 protein binding site.
Class I PI3K isoforms were expressed and purified as heterodimeric recombinant proteins. All assay reagents and buffers for the TR-FRET assay were purchased from Millipore. PI3K isoforms were assayed under initial rate conditions in the presence of 25 mM Hepes (pH 7.4), and 2× Km ATP (75-500 μM), 2 μM PIP2, 5% glycerol, 5 mM MgCl2, 50 mM NaCl, 0.05% (v/v) Chaps, 1 mM dithiothreitol, 1% (v/v) DMSO at the following concentrations for each isoforms: PI3Kα, PI3Kβ, and PI3Kδ between 25 and 50 pM, and PI3Kγ at 2 nM. After an assay reaction time of 30 minutes at 25° C., reactions were terminated with a final concentration of 10 mM EDTA, 10 nM labeled-PIP3, and 35 nM Europium labeled GRP-1 detector protein before reading TR-FRET on an Envision plate reader (Ex: 340 nm; Em: 615/665 nm; […] delay and 500 μs read window).
Data were normalized based on positive ([…] wortmanin) and negative (DMSO) controls. α, β, δ, and γ IC50 values were calculated from the fit of the dose-response curves to a four-parameter equation. All IC50 values represent geometric mean values if more than one value was obtained. IC50 values were reported in units of nM.
Background: TR-FRET usually uses a lanthanide donor and a delayed reading to cut background.

Series [3] can be described thus: Hepatocyte stability (parent drug disappearance in cryopreserved hepatocytes). Format: in vitro ADME, human. The note with it: human, cryopreserved human hepatocytes, 2 μM substrate, 37° C.; Table 2a. An outline of the steps:
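Test article at 2 μM incubated in duplicate with 1 million hepatocytes/mL at 37 °C, 5% CO2, humidified. Parent loss tracked by LC/MS at 0, 1, 2 and 4 h, giving half-life (t1/2) in hours.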

Chain of PI3Kδ (O00329 whole entry, canonical isoform): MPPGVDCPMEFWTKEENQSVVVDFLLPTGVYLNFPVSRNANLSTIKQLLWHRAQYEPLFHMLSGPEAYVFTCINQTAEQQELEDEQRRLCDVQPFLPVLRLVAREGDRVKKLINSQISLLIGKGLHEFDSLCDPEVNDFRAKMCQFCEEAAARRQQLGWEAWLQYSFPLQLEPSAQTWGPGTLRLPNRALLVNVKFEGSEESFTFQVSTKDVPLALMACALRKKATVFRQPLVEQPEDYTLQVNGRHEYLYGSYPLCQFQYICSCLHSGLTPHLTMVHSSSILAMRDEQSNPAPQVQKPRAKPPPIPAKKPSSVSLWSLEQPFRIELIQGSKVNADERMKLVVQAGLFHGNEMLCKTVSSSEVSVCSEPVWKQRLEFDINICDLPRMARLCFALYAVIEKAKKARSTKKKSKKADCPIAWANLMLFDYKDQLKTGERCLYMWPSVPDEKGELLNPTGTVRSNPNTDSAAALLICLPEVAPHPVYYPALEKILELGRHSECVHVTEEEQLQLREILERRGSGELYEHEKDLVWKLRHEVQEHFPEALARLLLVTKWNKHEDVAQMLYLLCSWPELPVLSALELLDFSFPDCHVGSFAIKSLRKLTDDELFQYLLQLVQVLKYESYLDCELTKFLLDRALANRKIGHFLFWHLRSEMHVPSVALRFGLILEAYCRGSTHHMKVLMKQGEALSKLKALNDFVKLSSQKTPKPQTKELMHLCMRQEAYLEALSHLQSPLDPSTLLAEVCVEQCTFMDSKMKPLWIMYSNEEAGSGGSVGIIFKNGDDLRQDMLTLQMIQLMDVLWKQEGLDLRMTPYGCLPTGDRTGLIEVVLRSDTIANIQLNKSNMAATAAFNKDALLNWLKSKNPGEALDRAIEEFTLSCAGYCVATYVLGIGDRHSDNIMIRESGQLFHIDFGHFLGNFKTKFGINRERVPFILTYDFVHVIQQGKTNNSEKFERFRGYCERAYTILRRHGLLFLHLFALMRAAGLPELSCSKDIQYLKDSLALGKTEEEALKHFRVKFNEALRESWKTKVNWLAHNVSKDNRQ
Chain of PI3Kδ (P27986 whole entry partner, canonical isoform): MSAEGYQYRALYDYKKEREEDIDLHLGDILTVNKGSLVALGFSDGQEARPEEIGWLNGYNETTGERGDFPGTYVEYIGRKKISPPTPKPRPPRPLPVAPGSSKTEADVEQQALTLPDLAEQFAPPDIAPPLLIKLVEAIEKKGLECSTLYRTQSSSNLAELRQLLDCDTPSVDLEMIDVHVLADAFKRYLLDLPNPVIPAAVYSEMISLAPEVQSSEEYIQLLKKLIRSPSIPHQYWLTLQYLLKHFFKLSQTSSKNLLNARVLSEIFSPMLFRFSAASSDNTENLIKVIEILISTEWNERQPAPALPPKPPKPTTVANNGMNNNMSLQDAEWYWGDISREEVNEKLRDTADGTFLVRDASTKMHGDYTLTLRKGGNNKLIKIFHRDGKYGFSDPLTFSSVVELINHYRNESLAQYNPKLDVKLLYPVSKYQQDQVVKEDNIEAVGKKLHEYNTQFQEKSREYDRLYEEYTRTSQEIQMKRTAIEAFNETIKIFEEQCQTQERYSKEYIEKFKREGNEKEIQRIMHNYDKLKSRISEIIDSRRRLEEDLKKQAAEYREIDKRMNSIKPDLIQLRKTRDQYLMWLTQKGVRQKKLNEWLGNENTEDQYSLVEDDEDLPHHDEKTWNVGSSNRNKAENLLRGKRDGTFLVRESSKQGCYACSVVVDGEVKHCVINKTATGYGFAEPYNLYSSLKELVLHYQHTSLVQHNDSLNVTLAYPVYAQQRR
Chain of PI3Kβ (P42338 whole entry, the tested form may be a part, canonical isoform): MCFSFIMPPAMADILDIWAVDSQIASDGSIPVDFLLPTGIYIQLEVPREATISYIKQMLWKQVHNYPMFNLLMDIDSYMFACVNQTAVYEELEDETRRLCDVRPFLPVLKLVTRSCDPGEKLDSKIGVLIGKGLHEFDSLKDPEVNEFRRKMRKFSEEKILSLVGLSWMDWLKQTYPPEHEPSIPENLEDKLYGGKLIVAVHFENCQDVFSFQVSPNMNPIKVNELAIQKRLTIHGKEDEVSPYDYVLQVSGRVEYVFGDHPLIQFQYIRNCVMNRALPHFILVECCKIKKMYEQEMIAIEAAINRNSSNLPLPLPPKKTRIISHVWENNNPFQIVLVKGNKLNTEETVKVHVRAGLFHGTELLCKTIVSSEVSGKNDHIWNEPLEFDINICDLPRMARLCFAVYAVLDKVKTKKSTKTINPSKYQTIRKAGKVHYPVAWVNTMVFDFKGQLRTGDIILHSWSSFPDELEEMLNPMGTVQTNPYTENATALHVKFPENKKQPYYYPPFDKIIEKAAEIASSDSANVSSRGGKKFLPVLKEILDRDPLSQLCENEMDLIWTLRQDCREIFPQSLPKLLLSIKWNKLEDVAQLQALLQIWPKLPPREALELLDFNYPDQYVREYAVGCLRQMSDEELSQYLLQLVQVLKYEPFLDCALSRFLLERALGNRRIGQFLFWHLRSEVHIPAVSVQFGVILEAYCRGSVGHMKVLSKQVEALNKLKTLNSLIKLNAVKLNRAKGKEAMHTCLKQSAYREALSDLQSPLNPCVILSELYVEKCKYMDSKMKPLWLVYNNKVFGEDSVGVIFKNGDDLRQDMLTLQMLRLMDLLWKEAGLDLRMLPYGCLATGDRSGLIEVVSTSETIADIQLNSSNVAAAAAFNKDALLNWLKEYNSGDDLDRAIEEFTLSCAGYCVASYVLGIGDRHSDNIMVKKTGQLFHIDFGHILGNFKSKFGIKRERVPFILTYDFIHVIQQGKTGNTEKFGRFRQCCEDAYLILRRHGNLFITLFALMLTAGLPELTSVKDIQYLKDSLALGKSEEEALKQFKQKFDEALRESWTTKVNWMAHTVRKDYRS
Chain of PI3Kβ (P27986 whole entry partner, the tested form may be a part, canonical isoform): as the sequence (P27986 whole entry partner, canonical isoform) above

As for `CC[C@H](Nc1nc(N)nc(N)c1C#N)c1nc2cccc(Cl)c2c(=O)n1-c1cnc(N)cc1C` (atropisomer, axis not shown) [Compound 92, (S)-2,4-diamino-6-((1-(3-(6-amino-4-methylpyridin-3-yl)-5-chloro-4-oxo-3,4-dihydroquinazolin-2-yl)propyl)amino)pyrimidine-5-carbonitrile], the IC50 in series [1] came to 0.8 nM; in series [2], 1 nM. For the same compound, the half-life at 2 μM in series [3] is 240 min.

For the compound `Cc1cc(N)ncc1-n1c([C@H](C)Nc2nc(N)nc(N)c2C#N)nc2cccc(Cl)c2c1=O` (atropisomer, axis not shown) [Compound 94, (S)-2,4-diamino-6-((1-(3-(6-amino-4-methylpyridin-3-yl)-5-chloro-4-oxo-3,4-dihydroquinazolin-2-yl)ethyl)amino)pyrimidine-5-carbonitrile], the concentration for half-maximal inhibition (IC50) in series [1] was found to be 0.5 nM; in series [2], 1 nM. In series [3], the half-life at 2 μM is 600 min.

As for `Cc1cc(N)ncc1-n1c([C@H](C)Nc2nc(N)nc(N)c2C#N)nc2c(Cl)ccc(Cl)c2c1=O` (atropisomer, axis not shown) [Compound 95, (S)-2,4-diamino-6-((1-(3-(6-amino-4-methylpyridin-3-yl)-5,8-dichloro-4-oxo-3,4-dihydroquinazolin-2-yl)ethyl)amino)pyrimidine-5-carbonitrile], the IC50 in series [1] is 4 nM; in series [2], 28 nM.

For the compound `Cc1cc(N)ncc1-n1c([C@@H](Nc2nc(N)nc(N)c2C#N)C2CC2)nc2c(Cl)ccc(Cl)c2c1=O` (atropisomer, axis not shown) [Compound 98, (S)-2,4-diamino-6-(((3-(6-amino-4-methylpyridin-3-yl)-5,8-dichloro-4-oxo-3,4-dihydroquinazolin-2-yl)(cyclopropyl)methyl)amino)pyrimidine-5-carbonitrile], the IC50 in series [1] came out at 21 nM; in series [2], 160 nM.

Take `Cc1cc(N)ncc1-n1c([C@@H](Nc2nc(N)nc(N)c2C#N)C2CC2)nc2c(Cl)ccc(Cl)c2c1=O` (atropisomer, axis not shown) [Compound 99, (S)-2,4-diamino-6-(((3-(6-amino-4-methylpyridin-3-yl)-5,8-dichloro-4-oxo-3,4-dihydroquinazolin-2-yl)(cyclopropyl)methyl)amino)pyrimidine-5-carbonitrile]: the IC50 was 640 nM in series [1] and 3600 nM in series [2].

`C[C@H](Nc1nc(N)nc(N)c1Cl)c1nc2c(Cl)cc(F)cc2c(=O)n1-c1ccc(N)nc1` [Compound 81, (S)-3-(6-aminopyridin-3-yl)-8-chloro-2-(1-((2,6-diamino-5-chloropyrimidin-4-yl)amino)ethyl)-6-fluoroquinazolin-4(3H)-one]: the figures for the IC50 in series [1] and in series [2] were 84 nM and 180 nM, respectively.

For the compound `C[C@H](Nc1nc(N)nc(N)c1Cl)c1nc2c(Cl)ccc(Cl)c2c(=O)n1-c1ccc(N)nc1` [Compound 83, (S)-3-(6-aminopyridin-3-yl)-5,8-dichloro-2-(1-((2,6-diamino-5-chloropyrimidin-4-yl)amino)ethyl)quinazolin-4(3H)-one], the IC50 in series [1] is 12 nM; in series [2] it was 42 nM.

In the case of `CC[C@H](Nc1nc(N)nc(N)c1Cl)c1nc2cccc(Cl)c2c(=O)n1-c1ccc(N)nc1` [Compound 86, (S)-3-(6-aminopyridin-3-yl)-5-chloro-2-(1-((2,6-diamino-5-chloropyrimidin-4-yl)amino)propyl)quinazolin-4(3H)-one], the IC50 is 9 nM in series [1] and 35 nM in series [2].

Turning to `Nc1ccc(-n2c([C@@H](Nc3nc(N)nc(N)c3Cl)C3CC3)nc3cccc(Cl)c3c2=O)cn1` [Compound 89, (S)-3-(6-aminopyridin-3-yl)-5-chloro-2-(cyclopropyl((2,6-diamino-5-chloropyrimidin-4-yl)amino)methyl)quinazolin-4(3H)-one], the IC50 in series [1] came to 9 nM; in series [2], 27 nM.

As for `N#Cc1c(N)nc(N)nc1N[C@H](c1nc2cccc(Cl)c2c(=O)n1-c1ccc(N)nc1)C1CC1` [Compound 90, (S)-2,4-diamino-6-(((3-(6-aminopyridin-3-yl)-5-chloro-4-oxo-3,4-dihydroquinazolin-2-yl)(cyclopropyl)methyl)amino)pyrimidine-5-carbonitrile], the IC50 in series [1] worked out at 0.6 nM; in series [2] it was 2 nM.

As to `C[C@H](Nc1nc(N)nc(N)c1Cl)c1nc2ccc(F)c(Cl)c2c(=O)n1-c1ccc(N)nc1` [Compound 100, (S)-3-(6-aminopyridin-3-yl)-5-chloro-2-(1-((2,6-diamino-5-chloropyrimidin-4-yl)amino)ethyl)-6-fluoroquinazolin-4(3H)-one], the IC50 in series [1] amounted to 48 nM; in series [2] it was 100 nM.

As for `C[C@H](Nc1nc(N)nc(N)c1C#N)c1nc2ccc(F)c(Cl)c2c(=O)n1-c1ccc(N)nc1` [Compound 101, (S)-2,4-diamino-6-((1-(3-(6-aminopyridin-3-yl)-5-chloro-6-fluoro-4-oxo-3,4-dihydroquinazolin-2-yl)ethyl)amino)pyrimidine-5-carbonitrile], the IC50 came out at 8 nM in series [1] and 11 nM in series [2].

Regarding `CCC[C@H](Nc1nc(N)nc(N)c1Cl)c1nc2cccc(Cl)c2c(=O)n1-c1ccc(N)nc1` [Compound 102, (S)-3-(6-aminopyridin-3-yl)-5-chloro-2-(1-((2,6-diamino-5-chloropyrimidin-4-yl)amino)butyl)quinazolin-4(3H)-one], the IC50 in series [1] amounted to 15 nM; in series [2], 62 nM.

Turning to `CCC[C@H](Nc1nc(N)nc(N)c1C#N)c1nc2cccc(Cl)c2c(=O)n1-c1ccc(N)nc1` [Compound 103, (S)-2,4-diamino-6-((1-(3-(6-aminopyridin-3-yl)-5-chloro-4-oxo-3,4-dihydroquinazolin-2-yl)butyl)amino)pyrimidine-5-carbonitrile], the IC50 was 1 nM in series [1] and 3 nM in series [2].

As for `CCC[C@H](Nc1nc(N)nc(N)c1Cl)c1nc2ccc(F)c(Cl)c2c(=O)n1-c1ccc(N)nc1` [Compound 104, (S)-3-(6-aminopyridin-3-yl)-5-chloro-2-(1-((2,6-diamino-5-chloropyrimidin-4-yl)amino)butyl)-6-fluoroquinazolin-4(3H)-one], the IC50 in series [1] is 94 nM; in series [2], 530 nM.

In the case of `CCC[C@H](Nc1nc(N)nc(N)c1C#N)c1nc2ccc(F)c(Cl)c2c(=O)n1-c1ccc(N)nc1` [Compound 105, (S)-2,4-diamino-6-((1-(3-(6-aminopyridin-3-yl)-5-chloro-6-fluoro-4-oxo-3,4-dihydroquinazolin-2-yl)butyl)amino)pyrimidine-5-carbonitrile], the IC50 in series [1] was 9 nM; in series [2], 41 nM.

With `Nc1ccc(-n2c([C@@H](Nc3nc(N)nc(N)c3Cl)C3CC3)nc3c(F)ccc(Cl)c3c2=O)cn1` [Compound 106, (S)-3-(6-aminopyridin-3-yl)-5-chloro-2-(cyclopropyl((2,6-diamino-5-chloropyrimidin-4-yl)amino)methyl)-8-fluoroquinazolin-4(3H)-one], the IC50 in series [1] is 31 nM; in series [2] it was 180 nM.

Consider `N#Cc1c(N)nc(N)nc1N[C@H](c1nc2c(F)ccc(Cl)c2c(=O)n1-c1ccc(N)nc1)C1CC1` [Compound 107, (S)-2,4-diamino-6-(((3-(6-aminopyridin-3-yl)-5-chloro-8-fluoro-4-oxo-3,4-dihydroquinazolin-2-yl)(cyclopropyl)methyl)amino)pyrimidine-5-carbonitrile], for which the results for the IC50 in series [1] and in series [2] were 1 nM and 3 nM, respectively.

For the compound `C[C@H](Nc1nc(N)nc(N)c1C#N)c1nc2cccc(Cl)c2c(=O)n1-c1cncc(N)c1` [Compound 108, (S)-2,4-diamino-6-((1-(3-(5-aminopyridin-3-yl)-5-chloro-4-oxo-3,4-dihydroquinazolin-2-yl)ethyl)amino)pyrimidine-5-carbonitrile], the values for the half-inhibitory concentration (IC50) in series [1] and in series [2] were 0.6 nM and 33 nM, respectively.

With `C[C@H](Nc1ncnc(N)c1C#N)c1nc2cccc(Cl)c2c(=O)n1-c1cncc(N)c1` [Compound 109, (S)-4-amino-6-((1-(3-(5-aminopyridin-3-yl)-5-chloro-4-oxo-3,4-dihydroquinazolin-2-yl)ethyl)amino)pyrimidine-5-carbonitrile], the IC50 in series [1] was found to be 2 nM; in series [2], 460 nM.

Broadly, the IC50 is the concentration at which inhibition is half-maximal. As a reminder, the half-life is how long it takes for the measured level to halve.
